Data set [1] deals with T1, interleukin-1β converting enzyme (ICE) (Homo sapiens, UniProt P29466).
T1 sequence (P29466 120-297 limits assumed): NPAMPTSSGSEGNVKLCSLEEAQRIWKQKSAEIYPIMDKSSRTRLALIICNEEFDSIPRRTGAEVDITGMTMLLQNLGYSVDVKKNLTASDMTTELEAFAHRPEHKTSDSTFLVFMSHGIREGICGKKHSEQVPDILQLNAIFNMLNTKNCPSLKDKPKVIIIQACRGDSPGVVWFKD
T1 sequence (P29466 317-404 limits assumed): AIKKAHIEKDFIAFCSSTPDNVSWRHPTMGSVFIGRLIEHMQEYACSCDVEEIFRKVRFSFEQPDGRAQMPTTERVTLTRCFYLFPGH
Kind of data set: ICE activity by the procedure of Thornberry et al. (1992). Type of data set: biochemical. On the procedure:
Assay for assessing the ICE activity of compound of Formula I
Gamma-pyrone-3-acetic acid was assessed for ICE activity by the procedure of Thomberry, et al (1992) Nature Vol. 356 pp 768-774.

A short description of data set [2]: Solubility of isolated material. The class given is physicochemical. On the procedure: Compound was isolated further by purification using HPLC. Two mL of filtered solution was passed through a C4 radial compression column (25×100 mm, WATERS ASSOCIATES) and an isocratic flow rate of 10 mL per minute of water was used to elute the active compound. A total of 5 runs were performed with fractions being collected at one minute intervals. The fractions were tested for ICE-activity. The active fractions eluted between 9-10 minutes. The ICE-active-rich cuts from each run were pooled and lyophilized. The resulting material appeared to be an oily brown substance that was soluble in water, methanol, and DMSO. Estimates of 7 mg of compound can be isolated from 300 ml of whole broth.

The structures appear in SMILES notation.

As to `O=C(O)Cc1coccc1=O` [Gamma-pyrone-3-acetic acid, gamma-pyrone-3-acetic acid], the IC50 (as a rule, the concentration that gives 50% inhibition) in data set [1] (pH 6.5 and 1 mM DDT) is 1300 nM; in data set [1] (pH 7:5 and 1 mM DDT) it was 4540 nM. Also, in data set [2] (DMSO), the “solubility in DMSO” value was “soluble”. In addition, the solubility in methanol result in data set [2] (methanol) is recorded as “soluble”. In data set [2] (water), the solubility in water result is given as “soluble”.

Values taken from patent US5411985A, “Gamma-pyrone-3-acetic acid as an inhibitor or interleukin-1 β inventory enzyme” (Merck & Co., Inc., priority 1993, dated 1995).
